Results published in article PMC8151276, “An Integrated Approach toward NanoBRET Tracers for Analysis of GPCR Ligand Engagement” (Molecules, 2021).

Biological target: T1, FPR3 (Homo sapiens, UniProt P25089)
T1 construct: purchased Promega (in-house HiBiT-GPCR construct library, NanoBRET)
T1 sequence (P25089 1-353): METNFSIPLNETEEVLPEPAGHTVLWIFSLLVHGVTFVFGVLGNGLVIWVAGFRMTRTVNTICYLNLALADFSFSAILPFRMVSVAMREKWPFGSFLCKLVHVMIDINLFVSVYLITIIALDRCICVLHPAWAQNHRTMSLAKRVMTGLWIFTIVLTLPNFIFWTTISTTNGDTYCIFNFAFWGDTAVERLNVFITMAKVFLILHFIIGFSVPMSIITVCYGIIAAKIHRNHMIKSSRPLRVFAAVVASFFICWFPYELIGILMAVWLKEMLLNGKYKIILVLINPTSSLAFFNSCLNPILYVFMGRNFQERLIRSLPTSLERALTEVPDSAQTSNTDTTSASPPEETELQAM
Assay: NanoBRET screen HiBiT-FPR3 in HEK293
Assay type: binding
Experimental: Each tracer candidate was screened across the entire library of HiBiT-GPCR constructs using NanoBRET as the detection modality. As depicted in Figure 4A, the specificity of interactions was evaluated through decrease in BRET due to competitive displacement of a bound tracer by excess parental compound. Each tracer was analyzed for binding to each HiBiT-GPCR fusion in the absence and in the presence of competing parental compound. Briefly, HEK293 cells were transfected with HiBiT-GPCR constructs diluted into promoterless DNA to reduce expression and maximize translocation to the cell surface. Each tracer candidate was then screened at concentrations of 1 μM and 0.1 μM across cells expressing these fusions. Cells were treated for 1.5 h with tracer either alone or in the presence of 20 μM competing parental compound (i.e., control). BRET was measured upon addition of purified LgBiT and subsequent complementation with HiBiT genetically fused to a GPCR. The specificity of interactions was assessed through a decrease in BRET signal due to competitive displacement of the bound tracer. To further gauge the robustness of these interactions, the fold response over the control (i.e., BRETtracer/BRETcontrol) was calculated. We chose a 1.5-fold response, which translates to ≥7-fold signal over noise as the minimal threshold required to score an interaction as positive. […]. Below we highlight the screening results obtained for our exemplary fluorescent tracers based on Clozapine, Amitriptyline and AZD1283.
HiBiT-GPCR DNA constructs were diluted in 10 mM Tris pH 8 to a final concentration of 0.01 μg/μL, arrayed in 96-well plates and stored at −20 °C. For transfection, HEK293 cells were suspended in Opti-MEM (without phenol red) supplemented with 2% fetal bovine serum (Seradigm) and 100 units/mL penicillin–streptomycin (Gibco) at a final concentration of 220,000 cells/mL and dispensed into white 96-well plates at 90 μL/well. Subsequent transfections and screens were carried using an Agilent Bravo Automated Liquid Handling Platform. First, the 96-well HiBiT DNA arrays were diluted 25-fold in Opti-MEM (without serum or phenol red) to a final concentration of 0.0004 μg/μL and 20 μL of the diluted DNAs were transferred into new 96-well plates. Next, promoterless carrier DNA (1 μg/μL) was diluted 25-fold (0.04 μg/μL) and then dispensed into the diluted arrays at 20 μL/well. Following brief mixing, Viafect transfection reagent (Promega) diluted 16-fold into Opti-MEM was dispensed into the plates at 40 μL/well. After mixing by pipetting, plates were incubated for 10 min on the pipetting station deck. The DNA-transfection reagent complexes were then added to plates containing cells. To facilitate the screen, 10 μL of DNA-transfection reagent complexes were added in duplicates to the top 4 and bottom 4 rows, resulting in two identical 48-well arrays per plate. Plates with transfected cells were incubated for 18–20 h at 37 °C/5% CO2. A screen of each tracer across the entire library using two different concentrations requires duplicate plates of transfected cells. Depending on the number of tracers being screened, transfections can be scaled up using the same ratios. The next day, for each tracer, four 20× screening solutions in tracer dilution buffer (Promega) were prepared: two duplicates at final concentration of 20 μM and two duplicates at a final concentration of 2 μM. A competing unmodified compound was added to one of each duplicate at a final concentration of 400 μM. The four resulting solutions were diluted 4-fold in Opti-MEM without serum or phenol red to generate 5× solutions (5 µM and 0.5 µM tracer +/− 100 μM competing compound). To screen the library, a BioTek MultiFlo FX liquid dispenser was used to dispense 22.5 µL of tracer solution to the top 4 rows and 22.5 µL tracer + competing compound solution to the 4 bottom rows. Plates were briefly mixed on an orbital shaker and incubated for 1.5 h at room temperature. […]

Compound	NanoBRET Fold Response (FPR3, tracer 0.1μM)	NanoBRET Fold Response (FPR3, tracer 1μM)	also measured
CCOC(=O)c1cc(C#N)c(N2CCC(C(=O)NS(=O)(=O)Cc3ccccc3/C=C/C(=O)NCCNC(=O)CCc3ccc4n3[B-](F)(F)[N+]3=C(c5ccc[nH]5)C=CC3=C4)CC2)nc1C [AZD1283-1-NB590]			NanoBRET Fold Response (FPR3, 0.1μM): 1.08; NanoBRET Fold Response (FPR3, 1μM): 1.06
N#CN=C(NCCCOc1cccc(CN2CCCCC2)c1)NCCNC(=O)CCOCCOCCOCCOCCNC(=O)CCc1ccc2n1[B-](F)(F)[N+]1=C(c3ccc[nH]3)C=CC1=C2 [Aminopotentidine-2-NB590]	1.21	1.13	
CN(C)CCC=C1c2ccccc2CCc2ccc(C(=O)NCCNC(=O)CCOCCOCCOCCOCCNC(=O)CCc3ccc4n3[B-](F)(F)[N+]3=C(c5ccc[nH]5)C=CC3=C4)cc21 [Amitriptyline-a-2-NB590]			NanoBRET Fold Response (tracer at 0.1μM): 0.96; NanoBRET Fold Response (tracer at 1μM): 1.07
CN(C)CCC=C1c2ccccc2CCc2ccc(C(=O)NCCNC(=O)CCOCCOCCOCCOCCNC(=O)CCc3ccc4n3[B-](F)(F)[N+]3=C(c5ccc[nH]5)C=CC3=C4)cc21 [Amitriptyline-b-2-NB590]			NanoBRET Fold Response (tracer at 0.1μM, listed as amitriptyline-b-2-NB590): 1.27; NanoBRET Fold Response (tracer at 1μM, listed as amitriptyline-b-2-NB590): 1.02
COc1ccc2c(n1)c(CCNC(C)=O)cn2CCNC(=O)CCc1ccc2n1[B-](F)(F)[N+]1=C(c3ccc[nH]3)C=CC1=C2 [Azamelatonin-1-NB590]			NanoBRET Fold Response (0.1μM tracer): 0.85; NanoBRET Fold Response (1μM tracer): 1.06
COc1ccc2[nH]c(-c3ccc(CNC(=O)CCOCCOCCOCCOCCNC(=O)CCc4ccc5n4[B-](F)(F)[N+]4=C(c6ccc[nH]6)C=CC4=C5)cc3)c(CCNC(C)=O)c2n1 [AzomelatoninICO9-2-NB590]			NanoBRET Fold Response (0.1μM tracer): 1.46; NanoBRET Fold Response (1μM tracer): 1.02
O=C(CCOCCOCCOCCOCCNC(=O)CCc1ccc2n1[B-](F)(F)[N+]1=C(c3ccc[nH]3)C=CC1=C2)NCCCN1CCN(C2=Nc3cc(Cl)ccc3Nc3ccccc32)CC1 [Clozapine-a-2-NB590]			NanoBRET Fold Response (FPR3, 0.1μM tracer): 0.92; NanoBRET Fold Response (FPR3, 1μM tracer): 1.30
CN1CCN(C2=Nc3cc(Cl)ccc3Nc3ccc(CNC(=O)CCOCCOCCOCCOCCNC(=O)CCc4ccc5n4[B-](F)(F)[N+]4=C(c6ccc[nH]6)C=CC4=C5)cc32)CC1 [Clozapine-b-2-NB590]			NanoBRET Fold Response (FPR3, 0.1μM tracer): 1.06; NanoBRET Fold Response (FPR3, 1μM tracer): 1.23
CN1CCN(C2=Nc3cc(Cl)ccc3N(CC(=O)NCCOCCOCCOCCOCCNC(=O)CCc3ccc4n3[B-](F)(F)[N+]3=C(c5ccc[nH]5)C=CC3=C4)c3ccccc32)CC1 [Clozapine-c-2-NB590]			NanoBRET Fold Response (FPR3, 0.1μM tracer): 1.08; NanoBRET Fold Response (FPR3, 1μM tracer): 1.01
O=C(CCOCCOCCOCCOCCNC(=O)CCc1ccc2n1[B-](F)(F)[N+]1=C(c3ccc[nH]3)C=CC1=C2)NCCCN1CCN(C2=Nc3ccccc3Oc3ccc(Cl)cc32)CC1 [Loxapine-a-2-NB590]	1.02	1.07	
COc1ccccc1N1CCN(CCCCN2C(=O)c3ccc(CNC(=O)CCOCCOCCOCCOCCNC(=O)CCc4ccc5n4[B-](F)(F)[N+]4=C(c6ccc[nH]6)C=CC4=C5)cc3C2=O)CC1 [NAN-190-2-NB590]	1.00	0.74	
COc1ccccc1N1CCN(CCCCN2C(=O)c3ccc(CNC(=O)CCOCCNC(=O)c4ccc(CNC(=O)CCc5ccc6n5[B-](F)(F)[N+]5=C(c7ccc[nH]7)C=CC5=C6)cc4)cc3C2=O)CC1 [NAN-190-3-NB590]	1.28	0.99	
O=C(CCc1ccc2n1[B-](F)(F)[N+]1=C(c3ccc[nH]3)C=CC1=C2)NCc1ccc(C(=O)NCCOCCC(=O)N[C@@H]2CC[C@@]3(O)[C@H]4Cc5ccc(O)c6c5[C@@]3(CCN4CC3CC3)[C@H]2O6)cc1 [Naltrexone-3-NB590]	0.82	0.92	
Cc1cc2c(s1)Nc1ccccc1N=C2N1CCN(CCCNC(=O)CCOCCOCCOCCOCCNC(=O)CCc2ccc3n2[B-](F)(F)[N+]2=C(c4ccc[nH]4)C=CC2=C3)CC1 [Olanzapine-a-2-NB590]	0.92	0.96	
O=C(CCc1ccc2n1[B-](F)(F)[N+]1=C(c3ccc[nH]3)C=CC1=C2)NCc1ccc(C(=O)NCCOCCOCCNCC(O)COc2cccc3ccccc23)cc1 (stereo not shown) [Propranolol-3-NB590]			NanoBRET Fold Response (FPR3, 0.1μM): 1.03; NanoBRET Fold Response (FPR3, 1μM): 1.03
O=C(CCc1ccc2n1[B-](F)(F)[N+]1=C(c3ccc[nH]3)C=CC1=C2)NCCOCCOCCNC(=O)OCCOCCN1CCN(C2=Nc3ccccc3Sc3ccccc32)CC1 [Quetiapine-a-2-NB590]	1.28	0.66	
Cc1nc2n(c(=O)c1CCN1CCC(c3noc4cc(F)ccc34)CC1)CCCC2OC(=O)NCCOCCOCCOCCOCCNC(=O)CCc1ccc2n1[B-](F)(F)[N+]1=C(c3ccc[nH]3)C=CC1=C2 (stereo not shown) [Risperidone-2-NB590]	0.98	0.94	
CC(C)N(CC[C@H](c1ccccc1)c1cc(CCNC(=O)CCOCCOCCOCCOCCNC(=O)CCc2ccc3n2[B-](F)(F)[N+]2=C(c4ccc[nH]4)C=CC2=C3)ccc1O)C(C)C [Tolterodine-2-NB590]	1.60	0.92	
CC(C)N(CC[C@H](c1ccccc1)c1cc(CCNC(=O)c2ccc(CNC(=O)CCc3ccc4n3[B-](F)(F)[N+]3=C(c5ccc[nH]5)C=CC3=C4)cc2)ccc1O)C(C)C [Tolterodine-BZ-NB590]	0.71	0.93	
CCCn1c(=O)c2[nH]c(-c3ccc(OCC(=O)NCCNC(=O)CCOCCNC(=O)c4ccc(CNC(=O)CCc5ccc6n5[B-](F)(F)[N+]5=C(c7ccc[nH]7)C=CC5=C6)cc4)cc3)nc2n(CCC)c1=O [XAC-3-NB590]	0.78	1.04	
